Results from patent publication US20230312587A1, “PTERIDINONE COMPOUNDS AND USES THEREOF” (Vertex Pharmaceutical Incorporated, priority 2018, published 2023).

system: β-catenin-TCF-mediated reporter transcription activity in Colo 205 cells; experiment: Colo 205 reporter assay (TCF/LEF luciferase); assay type: cell-based; details: Colo 205 TCF/LEF luciferase reporter, five hours after addition of compound; read-out: TCF reporter Colo205 IC50
How it was run: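 Luciferase signal from a TCF/LEF-driven reporter, stably integrated in Colo 205 colon cancer cells, was measured 5 h after compound addition.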

With Cc1nc(N[C@H]2C[C@@H](Cc3nc(C(F)(F)F)no3)C2)nc2c1NC(=O)[C@H](C(C)C)N2C [Compound 660, (S)-7-isopropyl-4,8-dimethyl-2-(((1s,3R)-3-((3-(trifluoromethyl)-1,2,4-oxadiazol-5-yl)methyl)cyclobutyl)amino)-7,8-dihydropteridin-6(5H)-one] the IC50 was less than 0.3 µM.

same assay, conditions: Homo sapiens, COLO 205, 5 h, Colo 205 TCF/LEF luciferase reporter, five hours after addition of compound; read-out: TCF reporter Colo205 IC50

First: Cc1nc(N[C@H]2C[C@@H](Nc3ccc(C(F)(F)F)nc3)C2)nc2c1NC(=O)[C@H](C(C)C)N2C [Compound 586, (S)-7-isopropyl-4,8-dimethyl-2-((cis-3-((6-(trifluoromethyl)pyridin-3-yl)amino)cyclobutyl)amino)-7,8-dihydropteridin-6(5H)-one]
Second: Cc1nc(NC2CN(C(=O)c3ccc(F)cc3)C2)nc2c1NC(=O)[C@H](C(C)C)N2C [Compound 548, (S)-2-((1-(4-fluorobenzoyl)azetidin-3-yl)amino)-7-isopropyl-4,8-dimethyl-7,8-dihydropteridin-6(5H)-one]
The IC50 of the first is lower: less than 0.3 µM for the first, 0.3 to 1 µM for the second.

First: Cc1nc(NCc2cnn(Cc3ccc(C(F)(F)F)nc3)c2)nc2c1NC(=O)[C@H](COC(C)(C)C)N2C [Compound 590, (S)-7-(tert-butoxymethyl)-4,8-dimethyl-2-(((1-((6-(trifluoromethyl)pyridin-3-yl)methyl)-1H-pyrazol-4-yl)methyl)amino)-7,8-dihydropteridin-6(5H)-one]
Second: Cc1nc(NCc2cnn(Cc3ccc(C(F)(F)F)nc3)c2)nc2c1NC(=O)[C@H](C(C)(C)O)N2C [Compound 726, (S)-7-(2-hydroxypropan-2-yl)-4,8-dimethyl-2-(((1-((6-(trifluoromethyl)pyridin-3-yl)methyl)-1H-pyrazol-4-yl)methyl)amino)-7,8-dihydropteridin-6(5H)-one]
The IC50 of the first is lower: 0.3 to 1 µM for the first, 1 to 5 µM for the second. The first is the more potent here.

First: Cc1nc(NCc2cnn(C3CCN(c4ccc(F)cc4)CC3)c2)nc2c1NC(=O)[C@H](C)N2C [Compound 130, (7S)-2-(((1-(1-(4-fluorophenyl)piperidin-4-yl)-1H-pyrazol-4-yl)methyl)amino)-4,7,8-trimethyl-7,8-dihydropteridin-6(5H)-one]
Second: Cc1nc(NCc2cnn(C3CCC(c4ccc(F)cc4)C3)c2)nc2c1NC(=O)[C@H](C)N2C (stereo partly drawn) [Compound 137, (7S)-2-(((1-(3-(4-fluorophenyl)cyclopentyl)-1H-pyrazol-4-yl)methyl)amino)-4,7,8-trimethyl-7,8-dihydropteridin-6(5H)-one]
The IC50 of the first is higher: no less than 5 µM for the first, less than 0.3 µM for the second.

Compared with COCC1(C)C(=O)Nc2c(C)nc(NCc3cnn(Cc4cc(C(F)(F)F)nn4C)c3)nc2N1C (centres unmarked) [Compound 704, 7-(methoxymethyl)-4,7,8-trimethyl-2-(((1-((1-methyl-3-(trifluoromethyl)-1H-pyrazol-5-yl)methyl)-1H-pyrazol-4-yl)methyl)amino)-7,8-dihydropteridin-6(5H)-one], Cc1nc(N[C@H]2C[C@H](c3ccc(OC(F)(F)F)cc3)C2)nc2c1NC(=O)[C@H](C)N2C [Compound 506, (7S)-4,7,8-trimethyl-2-(((trans)-3-(4-(trifluoromethoxy)phenyl)cyclo-butyl)amino)-7,8-dihydropteridin-6(5H)-one] is higher in IC50: less than 0.3 µM for the first, 0.3 to 1 µM for the second. The first is the more potent here.

Cc1nc(N[C@H]2C[C@@H](NC(=O)c3cc(F)c(F)c(F)c3)C2)nc2c1NC(=O)[C@H](C)N2C [Compound 475, 3,4,5-trifluoro-N-(cis-3-(((S)-4,7,8-trimethyl-6-oxo-5,6,7,8-tetrahydropteridin-2-yl)amino)cyclobutyl)benzamide] and COc1ccc(O[C@H]2C[C@H](Nc3nc(C)c4c(n3)N(C)[C@@H](C)C(=O)N4)C2)cc1 [Compound 342, (7S)-2-((trans-3-(4-methoxyphenoxy)cyclobutyl)amino)-4,7,8-trimethyl-7,8-dihydropteridin-6(5H)-one] fall in the same range of IC50: 1 to 5 µM for the first, 1 to 5 µM for the second.

same assay, conditions: Homo sapiens, COLO 205, 5 h, R-isomer at C2 (corresponding to C2 S-isomer); Colo 205 TCF/LEF luciferase reporter, 5 h; read-out: TCF reporter Colo205 IC50

COCC[C@@H]1C(=O)Nc2c(C)nc(NCc3cnn(Cc4cc(C(F)(F)F)nn4C)c3)nc2N1C [Compound I-1648] and COCC[C@@H]1C(=O)Nc2c(C)nc(NCc3cnn(Cc4ccc(C(F)(F)F)nc4)c3)nc2N1C [Compound I-1647] cannot be ordered by IC50: no less than 5 µM for the first, 1 to 5 µM for the second.

In the case of CC[C@@H]1C(=O)N(C)c2cnc(NCc3cnn(Cc4ccc(F)cc4)c3)nc2N1C(C)C [Compound I-1146], the IC50 is reported as 0.3 to 1 µM.
